# Assay results reported in US20180214423A1, “PHARMACEUTICAL COMPOSITION COMPRISING RAPAMYCIN OR DERIVATIVE THEREOF, AND METHOD FOR PRODUCING THE SAME” (NIPPON KAYAKU KABUSHIKI KAISHA, priority 2015, published 2018).
# Experiments:
# [1] = cited from earlier work
# [2] = Test Example B1: preservation stability of everolimus compositions and active pharmaceutical ingredient, residual everolimus by HPLC; type: physicochemical; details: light-shielded, 60° C.
# Procedure: It is to be noted that, in the analysis using liquid chromatography (HPLC) in the present test examples, the measurement was carried out under the following conditions. • Measurement column: Zorbax Eclipse XDB-C18, Rapid resolution HT, 100 mm ×4.6 mm, L8 μm • Detector: ultraviolet absorption spectrophotometer (measurement wavelength: 278 nm) • Column temperature: 45° C. • Mobile phase A: 0.1% formic acid; mobile phase B: methanol/acetonitrile=50/50 • Concentration gradient of mobile phase:
# The pharmaceutical compositions obtained by the methods of Example B1 and Comparative Examples B1 to B4 (approximately 1 g each) and the active pharmaceutical ingredient of everolimus (100 mg) were each collected in a brown sample bottle, and were then preserved under light-shielded conditions at 60° C., in a desiccator, the humidity of which had been adjusted with a saturated cobalt chloride aqueous solution (relative humidity: approximately 49%), while the bottle was uncapped.
# The residual amounts of everolimus 10 days and 14 days after initiation of the preservation test were measured by liquid chromatography (HPLC), and the residual percentages of everolimus at individual time points were then calculated. It is to be noted that the residual percentage was calculated according to the following formula. The results are shown in Table 5. • Residual percentage (%) of everolimus (peak area of everolimus measured by HPLC at each time point/weighed value of powders)/(peak area of everolimus measured by HPLC before preservation (initial)/weighed value of powders)× 100.
Compound,critical relative humidity at 25° C. [1],decomposition reaction such as oxidation on preservation (in words) ([2]; relative humidity approximately 49%),"Residual percentage (%) of everolimus, Value on Day 10 ([2]; relative humidity approximately 49% (saturated cobalt chloride), uncapped, Day 10) [%]","Residual percentage (%) of everolimus, Value on Day 14 ([2]; relative humidity approximately 49% (saturated cobalt chloride), uncapped, Day 14) [%]"
OC[C@@H](O)[C@@H](O)[C@H](O)[C@@H](O)CO [sorbitol],approximately 70%,–,–,–
CO[C@H]1C[C@@H]2CC[C@@H](C)[C@@](O)(O2)C(=O)C(=O)N2CCCC[C@H]2C(=O)O[C@H]([C@H](C)C[C@@H]2CC[C@@H](OCCO)[C@H](OC)C2)CC(=O)[C@H](C)/C=C(\C)[C@@H](O)[C@@H](OC)C(=O)[C@H](C)C[C@H](C)/C=C/C=C/C=C/1C [40-O-(2-hydroxyethyl)rapamycin],–,rapidly progresses,5,2
OC[C@@H](O)[C@@H](O)[C@H](O)[C@H](O)CO [mannitol],≥ 95%,–,–,–
OC[C@H]1O[C@@H](O[C@H]2[C@H](O)[C@@H](O)C(O)O[C@@H]2CO)[C@H](O)[C@@H](O)[C@H]1O (stereo partly shown) [lactose],≥ 95%,–,–,–
OC[C@H]1O[C@H](O[C@H]2O[C@H](CO)[C@@H](O)[C@H](O)[C@H]2O)[C@H](O)[C@@H](O)[C@@H]1O [trehalose],≥ 95%,–,–,–
